In US4439434A, “Cephalosporin derivative and pharmaceutical composition containing the derivative” (Kureha Kagaku Kogyo Kabushiki Kaisha, priority 1981, dated 1984):
In brackets after ≈: the same amount, converted by molar mass.

Key:
[1] = test system: ICR-JCL mouse; conditions: conventional cephalosporin antibiotic, route not stated; cited from earlier work
[2] = test system: Escherichia coli; assay: Effect on the intestinal bacterial colonies: Escherichia coli in feces; assay type: in vivo; conditions: mice, oral 500 mg/kg/day for two consecutive days, feces one day after administration
Method: (§1) Each of the cephalosporin derivatives of the invention prepared in Examples 1 to 10 was orally administered to mice (one group consisting of five female ICR mice of 6-week-old) for two consecutive days at a dose of 500 mg/kg/day.
(§2) Before and one day after the administration, feces of each mouse were collected and diluted with an anaerobic diluent (phosphoric buffer solution) of 100 times volume and the diluted feces were ground. 0.1 ml of the diluted and ground feces was smeared on each culture medium shown in Table 1 and cultured aerobically or anaerobically (according to the anaerobic glove box method) under each condition shown in Table 1 and the number of each bacterium shown in Table 1 was counted.
DHL agar aerobic, 37° C.,

[3] = test system: Pseudomonas aeruginosa; assay: Effect on the intestinal bacterial colonies: Pseudomonas aeruginosa in feces; assay type: in vivo; conditions: mice, oral 500 mg/kg/day for two consecutive days, feces one day after administration
Method: as §1, §2
NAC agar aerobic, 37° C.,

[4] = test system: Streptococcus spp.; assay: Effect on the intestinal bacterial colonies: Streptococcus spp. in feces; assay type: in vivo; conditions: mice, oral 500 mg/kg/day for two consecutive days, feces one day after administration
Method: as §1, §2
TATAC agar aerobic, 37° C.,

[5] = test system: Lactobacillus acidophilus; assay: Effect on the intestinal bacterial colonies: Lactobacillus acidophilus in feces; assay type: in vivo; conditions: mice, oral 500 mg/kg/day for two consecutive days, feces one day after administration
Method: as §1, §2
Lactobacillus acidophilus
LBS agar anaerobic, 37° C.,

[6] = test system: Lactobacillus bifidus; assay: Effect on the intestinal bacterial colonies: Lactobacillus bifidus in feces; assay type: in vivo; conditions: mice, oral 500 mg/kg/day for two consecutive days, feces one day after administration
Method: as §1, §2
BS agar anaerobic, 37° C.,

[7] = test system: Bacteroides; assay: Effect on the intestinal bacterial colonies: Bacteroides in feces; assay type: in vivo; conditions: mice, oral 500 mg/kg/day for two consecutive days, feces one day after administration
Method: as §1, §2
Bacteroides NBGT agar anaerobic, 37° C.,

[8] = test system: Escherichia coli IFO 12734; assay: Antibacterial activity (MIC, agar plate) against E. coli; assay type: cell-based; conditions: Escherichia coli IFO 12734, Mueller-Hinton agar, 37° C., 18 to 24 hours; unit assumed
Method: (§3) Antibacterial activity of each of the cephalosporin derivatives of the invention prepared in Examples 1 to 10 was examined against the following two bacteria according to the standard method of Japan Society of Chemitherapy: Escherichia coli IFO 12734 and Staphylococcus aureus IAM 1011.
(§4) Each bacterial strain was inoculated into the Mueller-Hinton's culture medium and cultured at 37° C. for 18 to 48 hours. The cultured medium was diluted so as to contain 1×10^6 cells of the bacteria per one ml, and the obtained medium was used as the bacterial specimen.
(§5) Agar plates were prepared by adding one part by weight of each solution of the cephalosporin derivative of the invention at a predetermined concentration to nine parts by weight of Mueller-Hinton's culture medium.
(§6) A loopful amount of the bacterial specimen prepared above was smeared to make a streak of about 2 cm on each agar plate prepared above and cultured at 37° C. for 18 to 24 hours.
(§7) The minimum concentration for completely inhibiting proliferation of the bacteria (referred to as MIC) was determined.

[9] = test system: Staphylococcus aureus IAM 1011; assay: Antibacterial activity (MIC, agar plate) against Staph. aureus; assay type: cell-based; conditions: Staphylococcus aureus IAM 1011, Mueller-Hinton agar, 37° C., 18 to 24 hours; unit assumed
Method: as §3, §4, §5, §6, §7

[10] = test system: Staphylococcus aureus IAM 1011; assay: Activation by rat liver homogenate (S-9 mix), proliferation-inhibiting circle, penicillin cup method; assay type: cell-based; conditions: incubated with rat liver S-9 mix, 37° C. 20 min; circle diameter relative to the starting compound
Method: As an activating enzyme of metabolism, a rat liver homogenate (S-9, manufactured by Oriental Yeast Company, Japan) was used in the following composition per 1 ml (hereinafter referred to as S-9 mix). 0.1 ml of the solution of each of the cephalosporin derivatives of the invention prepared in Examples 1 to 10 at a concentration of 100 μg/ml was mixed with 0.9 ml of S-9 mix or 0.9 ml of 0.1 M phosphoric buffer solution (as a control) and the obtained mixture was incubated at 37° C. for 20 min. with shaking. Staphylococcus aureus IAM 1011 was inoculated into a Mueller-Hinton's culture medium and cultured at 37° C. for 18 hours. The culture medium was adjusted to a cell concentration of 1×10^8 per 1 ml and mixed with 50 times by volume of Mueller-Hinton's agar culture medium to obtain an agar plate. A penicillin cup of 8 mm in diameter was placed on the agar plate prepared above, and into the cup 0.1 ml of the mixture containing the cephalosporin derivative prepared above was introduced and allowed to stand at 4° C. for 2 hours, and then cultured at 37° C. for 18 hours to measure the diameter of a circle in which the proliferation of bacteria was inhibited (proliferation-inhibiting circle). In Table 4, the proliferation-inhibiting index is shown in the ratio (%) of the diameter of the proliferation-inhibiting circle obtained by using each of the cephalosporin derivatives of the invention to that obtained by using each of the starting compound in preparing each of the cephalosporin derivatives of the invention.

MIC E. coli [8] [µg/mL]	MIC Staph. aureus [9] [µg/mL]	Structure (SMILES)	LD50 [1]	Logarithmic value of the number of bacterial cells per one g of feces, E. coli [2]	Logarithmic value of the number of bacterial cells per one g of feces, Ps. aeruginosa [3]	Logarithmic value of the number of bacterial cells per one g of feces, Strept. spp. [4]	Logarithmic value of the number of bacterial cells per one g of feces, L. acidophilus [5]	Logarithmic value of the number of bacterial cells per one g of feces, L. bifidus [6]	Logarithmic value of the number of bacterial cells per one g of feces, Bacteroides [7]	Proliferation-inhibiting index (%) After adding S-9 mix [10]
–	–	CC(=O)OCC1=C(C(=O)O)N2C(=O)[C@@H](NC(=O)Cc3cccs3)[C@H]2SC1 [cephalotin sodium]	about 5 g/kg	–	–	–	–	–	–	–
≥ 25	0.2 (≈ 0.378 µM)	COC(=O)c1ccc(NC(=O)C2=C(COC(C)=O)CSC3C(NC(=O)Cc4cccs4)C(=O)N23)cc1 (stereo not shown) [Example 2, N-(4-carbomethoxyphenyl)-7-(thienyl-2-acetamido)cephalosporanic acid amide]	–	6.4	< 3.0	6.7	9.1	8.6	8.1	++ (33-66)
